Legend:
[1] = Osmolality of carrageenan preparations; assay type: physicochemical
human coronavirus OC43 = experiment: Hemagglutination inhibition assay, minimal inhibitory concentration for prevention of hCoV OC43 attachment to chicken RBCs; assay type: cell-based
Method: On a 96-well plate, two hemagglutination units of hCoV OC43/well were incubated with a ½-log dilution series of test or control samples for 10 min at room temperature. Final assay concentrations were 0.002 to 3 μg/ml iota-carrageenan in aqueous 0.5, 0.9, 2.0, 2.3 or 2.6% NaCl solution in the presence or absence of 7% sorbitol. Then, a suspension of chicken RBCs (1% v/v in PBS) was added to each well to allow hemagglutination of red blood cells (RBCs) by the virus for 1.5 hrs at 4° C. At the time point of assay evaluation, control RBCs in the absence of carrageenan were fully agglutinated, whereas hemagglutination was inhibited in the presence of carrageenan up to a sample-specific concentration, the minimal inhibitory concentration.

[2] = tested on: human rhinovirus 1a (HRV1a); experiment: Inhibition of human rhinovirus 1a infection of Hela cells (cell viability, IC50)
Method: (§1) Hela cells were seeded into 96 well plates with a cell density of 5*10^3 cells per well and cultivated for 24 hours in a standard DMEM tissue culture medium containing 4.5 g/I glucose. Virus suspensions containing carrageenan polymer at varying concentrations of between 0 and 150 μg/ml, in combination with NaCl and sorbitol (as indicated in the respective legends to each table) in a dilution series, were incubated for 30 minutes. Cells were infected with these virus suspensions containing the test substances and 7*10^3 (HRV1a) or 5*10^4 (HRV8) infectious units per well. 30 minutes after infection the virus inoculum was removed and substituted by virus-free infection medium containing carrageenan polymer, NaCl salt and sorbitol in the concentrations to be tested. The cells were incubated for 2 to 3 days at 33° C. […] An incubation of cells with the same dilution series of test substances (i.e. carragenan component plus osmolalitiy adjusting agents) in the absence of viral infection was performed to monitor for a potential toxicity of the treatment. Calculation of IC50 values was performed with standard fitting software ExcelFit.

[3] = tested on: human rhinovirus 8 (HRV8); experiment: Inhibition of human rhinovirus 8 infection of Hela cells (cell viability, IC50)
Method: as §1

[4] = 0.9% NaCl (295 mOsm/kg) compared to 0.5% NaCl (174 mOsm/kg)
[5] = 2% NaCl (670 mOsm/kg) compared to 0.5% NaCl (174 mOsm/kg)
[6] = 2.6% NaCl (872 mOsm/kg) compared to 0.5% NaCl (174 mOsm/kg)
[7] = 2.3% NaCl (776 mOsm/kg) compared to 0.5% NaCl (174 mOsm/kg)

## iota-carrageenan [iota carrageenan]
[1]; Table 1, solution with 0.9% NaCl
  osmolality: 295 mOsm/kg
[1]; Table 1, solution with 2% NaCl
  osmolality: 670 mOsm/kg
[1]; Table 1, solution with 2.3% NaCl
  osmolality: 776 mOsm/kg
[1]; Table 1, solution with 2.6% NaCl
  osmolality: 872 mOsm/kg
[1]; Table 4, solution with 0.9% NaCl
  osmolality: 295 mOsm/kg
[1]; Table 4, solution with 2% NaCl
  osmolality: 670 mOsm/kg
[1]; Table 4, solution with 2.3 NaCl
  osmolality: 776 mOsm/kg
[1]; Table 4, solution with 2.6% NaCl
  osmolality: 872 mOsm/kg
[1]; Table 5, solution with 0.5% NaCl + 7% sorbitol
  osmolality: 597 mOsm/kg
[1]; Table 5, solution with 0.9% NaCl + 7% sorbitol
  osmolality: 733 mOsm/kg
[1]; Table 5, solution with 2.3% NaCl
  osmolality: 748 mOsm/kg
Human coronavirus OC43; 0.5% NaCl + 7% sorbitol (597 mOsm/kg) compared to 0.5% NaCl (174 mOsm/kg)
  Increase of the minimal inhibitory concentration, hCV OC43: 1-fold (ns)
Human coronavirus OC43; [4]
  Increase of the minimal inhibitory concentration, hCV OC43: 1-fold (ns)
Human coronavirus OC43; 0.9% NaCl + 7% sorbitol (733 mOsm/kg) compared to 0.5% NaCl (174 mOsm/kg)
  Increase of the minimal inhibitory concentration, hCV OC43: 1-fold (ns)
Human coronavirus OC43; [5]
  Increase of the minimal inhibitory concentration, hCV OC43: 10-fold*
Human coronavirus OC43; 2.3% NaCl (748 mOsm/kg) compared to 0.5% NaCl (174 mOsm/kg)
  Increase of the minimal inhibitory concentration, hCV OC43: 10-fold*
Human coronavirus OC43; 2.3 NaCl (776 mOsm/kg) compared to 0.5% NaCl (174 mOsm/kg)
  Increase of the minimal inhibitory concentration, hCV OC43: 10-fold*
Human coronavirus OC43; [6]
  Increase of the minimal inhibitory concentration, hCV OC43: 10-fold*
[2]; 0.9% NaCl (295 mOsm/kg) compared to hypoosmolar 0.5% NaCl solution (174 mOsm/kg)
  Increase of IC50 value, HRV1a inhibition: 3.1-fold* ^
[2]; [5]
  Increase of IC50 value, HRV1a inhibition: 14.5-fold*
[2]; [7]
  Increase of IC50 value, HRV1a inhibition: 22.3-fold*
[2]; [6]
  Increase of IC50 value, HRV1a inhibition: 33.7-fold*
[2]; isoosmolar (0.9%) and hyperosmolar (2%, 2.3%, 2.6% NaCl) compared with hypoosmolar solution (0.5% NaCl), summary of Table 1
  reduction in inhibitory efficacy on human rhinovirus replication: ≤ 34 fold
[3]; [4]
  Increase of IC50 value, HRV8 inhibition: 1.8-fold (ns)
[3]; [5]
  Increase of IC50 value, HRV8 inhibition: 3.6-fold*
[3]; [7]
  Increase of IC50 value, HRV8 inhibition: 6.9-fold*
[3]; [6]
  Increase of IC50 value, HRV8 inhibition: 7.5-fold*

From patent US10660914B2, “Stuffy nose deblocking composition having antiviral activity” (MARINOMED BIOTECH AG, priority 2015, dated 2020)
